{"source": "patent US8404665B2", "about": "“In vivo use of glutathione S-transferase activated nitric oxide donors” (University of Utah Research Foundation, priority 2002, dated 2013)", "key": {"Meth A": {"test_system": "Meth A", "experiment": "Meth A solid tumor cell growth", "type": "cell-based", "procedure": "Cell Lines and Culture Conditions. HL-60, DLD1, and U937 cells were obtained from ATCC (Rockville, Md.). Meth A cells were from Dr. Wolfram Samlowski (University of Utah, Salt Lake City, Utah). The PPC-1 cell line was provided by Dr. Graeme Bolger (University of Alabama, Birmingham, Ala.). For the cell growth and apoptosis experiments, cells were cultured at a density of 150,000 cells/ml in RPMI-1640 with 10% fetal bovine serum at 37° C. in a 5% CO2 humidified atmosphere. Agents were added at the indicated concentrations 24 h after culture initiation. At the indicated time intervals, cells were harvested and washed twice in phosphate buffered saline (PBS) prior to processing for analysis of growth, differentiation, and apoptosis.\nCell Growth, Differentiation and Apoptosis Assays. The number of viable cells was determined using the MTT assay according to the manufacturer's protocol (Promega, Madison, Wis.) or using a Coulter counter. […] The assay is useful in calorimetric quantitation of cell viability and proliferation. In contrast, cell differentiation was evaluated using Wright and Non-Specific Esterase (NSE) staining of cells collected on microscope slides by cytospin as previously described (Magrinat, G. et al. (1992) Blood 80: 1880-1884). […]"}, "[1]": {"conditions": "mouse, in vivo, iv"}, "PPC-1 cells": {"test_system": "PPC-1 cells", "experiment": "Subcutaneous PPC-1 tumor implants in NOD/SCID mice", "type": "in vivo", "procedure": "To study the in vivo antineoplastic potency of JS-K, NOD/SCID mice were injected in the flanks subcutaneously with HL-60 or PPC-1 cells (2.5×10^6 cells per flank). When subcutaneous tumors were palpable, treatment with JS-K or an equal volume of vehicle (20% dimethyl sulfoxide in PBS) was started using the indicated doses and route. Tumor size was measured daily or every other day using a Vernier caliper. Tumor volume was calculated using the formula: width×length×[(width+length)/2]×0.5236. Fifteen to 20 days after tumor cell implantation, animals were sacrificed by CO2 inhalation and tumors were collected for histochemical analysis.\nHistological Analysis of Tumors. After sacrifice, subcutaneous tumors were dissected out, fixed in 10% formaldehyde and imbedded in paraffin. Four-um sections were cut and stained with Hematoxylin and Eosin.\nTo determine if JS-K is cytotoxic to solid tumors, the effect of JS-K on the in vitro and in vivo growth of the prostate cancer cell line PPC-1 was studied. Similar to studies in HL-60 cells, indications are that JS-K appears to be a potent growth inhibitor for prostate cancer cells in vitro and in vivo. For the in vitro experiments, JS-K was added to PPC-1 cells at 1, 2, 3, 4, and 5 μM concentrations. […] For the in vivo experiments, NOD/SCID mice were inoculated subcutaneously with […] PPC-1 cells, as described above. When the subcutaneous tumors were measurable, JS-K was administered intravenously at a dose of 4 μmol/kg or an equal volume of vehicle 3 times per week.\nIn order to determine whether JS-K inhibits the in vivo growth of solid tumor cells, NOD/SCID mice were implanted with 2.5×10^6 PPC-1 (prostate carcinoma) cells and treated with 4 μmol/kg JS-K or an equal volume of vehicle intravenously 3 times a week. Similar to the observation with HL-60 cells, JS-K treatment appeared to inhibit the growth of PPC-1 cells in vivo. Nineteen days after start of therapy, subcutaneous tumor implant volumes were 0.368±0.082 and 0.107±0.053 cm^3 (P=0.0073) in vehicle and JS-K-treated animals, respectively. […]"}, "[2]": {"experiment": "NO release by chemiluminescence detection, GSH without enzyme", "type": "physicochemical", "procedure": "Measurement of NO Release. Chemiluminescence detection and quantification of NO evolving from the reactions of JS-K were conducted using an NO-specific Thermal Energy Analyzer (Model 502A, Thermedics, Analytical Instrument Division, Waltham, Mass.) essentially as previously described (Keefer, L. K. et al. (1996) Methods Enzymol. 268: 281-293). Briefly, pH 7.4 phosphate buffer containing 1 mM GSH was sparged with inert gas until a steady detector response was established. Where indicated, GSTs were added to a final concentration of 1.67 ug of enzyme/ml. […] The resulting curve was integrated to quantify the amount of NO released/mole of compound.\nThese reactions led to NO generation as predicted as indicated by purging gases from the solution as they formed into an NO-specific chemiluminescence detector. […] In the absence of enzyme, NO release began immediately upon adding GSH, increasing in rate until plateauing at 8 min and integrating to a total of 1.1 mol of NO per mol of JS-K within 43 min of mixing."}, "rabbit thoracic aorta": {"test_system": "rabbit thoracic aorta", "experiment": "Rabbit aortic rings bioassay of NO activity (vasorelaxation)", "text": "Preparation of Rabbit Aortic Rings for Bioassay of NO Activity. The preparation of rabbit aortic rings was similar to that described previously (Jia L and Furchgott R F (1993) J Pharmnacol Exp Ther 267: 371-378.), and the animal protocol was approved by the Institutional Animal Care and Use Committee. Briefly, a male New Zealand rabbit was anesthetized by an intravenous injection of sodium pentobarbital into a marginal ear vein. The descending thoracic aorta was quickly removed. The aortic rings (2 mm in length) were prepared and mounted in 20 ml of Krebs' solution (bubbled with 95% O2/5% CO2, 37° C.) in organ chambers. […] Rings were allowed to equilibrate for at least 90 min before experiments were initiated. Basal tension was maintained at approximately 3 g. To allow studies on relaxation, each ring was precontracted submaximally by addition of 50-100 nM phenylephine to the bathing solution. When the contraction had reached a steady state, JS-K was added successively to the bathing solution until the maximal relaxation was obtained. Hb and ODQ were also added to the bathing solution to investigate the mechanisms of action of JS-K.\nThe ability of JS-K to function as a NO donor was examined in the rabbit thoracic aorta model. […]"}, "[3]": {"conditions": "4 μmol/kg i.v. 3 times per week"}}}
{"molecule": "CCOC(=O)N1CCN(/[N+]([O-])=N/Oc2ccc([N+](=O)[O-])cc2[N+](=O)[O-])CC1", "note": "[JS-K, O^2-(2,4-dinitrophenyl) 1-[(4-ethoxycarbonyl)piperazin-1-yl]diazen-1-ium-1,2-diolate]", "values": [{"measurement": "IC50 relative to leukemia lines", "setting": "Meth A", "value": "an order of magnitude greater than those for the two leukemia lines"}, {"measurement": "peak blood concentration the dose would achieve", "setting": "[1]", "value": "approximately 68 μM"}, {"measurement": "prostate cancer growth in vivo", "setting": "PPC-1 cells; [3]", "value": "significant delay in prostate cancer growth in vivo"}, {"measurement": "tumor histology (necrosis)", "setting": "PPC-1 cells; [3]", "value": "high degree of extensive tumor necrosis"}, {"measurement": "subcutaneous tumor implant volume", "setting": "PPC-1 cells; nineteen days after start of therapy, vehicle 0.368±0.082, P=0.0073", "value": "0.107±0.053", "unit": "cm^3"}, {"measurement": "time at which NO release rate plateaued", "setting": "[2]; 1 mM GSH, no enzyme", "value": 8, "unit": "min"}, {"measurement": "total NO released", "setting": "[2]; 1 mM GSH, pH 7.4 phosphate, 0.67 uM JS-K, no enzyme, within 43 min of mixing", "value": "1.1 mol of NO per mol of JS-K"}, {"measurement": "NO detection without GSH", "setting": "[2]; pH 7.4 phosphate/0.67 uM JS-K solution", "value": "did not appear to be detected until 1 mM GSH was added"}, {"measurement": "reversibility of vasoactivity", "setting": "rabbit thoracic aorta; Hb and ODQ added", "value": "reversible in the presence of a NO scavenger and a specific inhibitor of the NO-sGC-cGMP pathway"}, {"measurement": "concentration at which vasorelaxation reached a maximum", "setting": "rabbit thoracic aorta; rings precontracted with phenylephine", "value": 100, "unit": "nM"}]}
